The test system of experiment [1] is HEK293sieSTAT3(Y640F). Kind of experiment: drug sensitivity score (DSS), cytotoxicity CellTox Green (DSS (dimensionless)); higher = more cytotoxic; extreme values may be limits of the assay. The conditions noted are these: 72 h; STAT3 variant: Y640F (constitutively active). In outline: (§1)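 Each value is one representative of two experiments in which HEK293 cells overexpressing wild-type or mutant STAT3 with a STAT3-dependent luciferase reporter were exposed to compounds at 5 concentrations (10-fold dilutions) for 72 hours at 37°C and 5% CO2. Readouts were CellTox Green fluorescence and then CellTiter-Glo luminescence, normalised to negative and positive control wells. The drug sensitivity score was based on the dose-response curve area and computed in Breeze.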

The test system of experiment [2] is HEK293sieSTAT3(wt). The description is as above. Particulars: 72 h; STAT3 variant: wild type. In outline: as §1
The test system of experiment [3] is HEK293sieSTAT3(Y640F). Kind of experiment: drug sensitivity score (DSS), viability CellTiter-Glo (DSS (dimensionless)); higher = more growth inhibition; extreme values may be limits of the assay. The conditions noted are these: 72 h; STAT3 variant: Y640F (constitutively active). A digest of the protocol: as §1
(ATP-based viability assays read luminescence as a measure of living cells.)

Experiment [4] has as its system HEK293sieSTAT3(wt). The description is as above. Particulars: 72 h; STAT3 variant: wild type. In outline:
as §1

This is an account of results in the supplement of paper PMC7108870.

`COCC(=O)NC/C=C/c1ccc2ncnc(Nc3ccc(Oc4ccc(C)nc4)c(C)c3)c2c1` (top concentration tested 10000 nM): the drug sensitivity score is 0 with HEK293sieSTAT3(Y640F) [1], 2.66 in the experiment on HEK293sieSTAT3(wt) [2], 1.25 with HEK293sieSTAT3(Y640F) [3] and 3.61 in the experiment with HEK293sieSTAT3(wt) [4].

Consider `COc1cc2ncnc(Oc3cccc(NC(=O)Nc4cc(C(C)(C)C(F)(F)F)on4)c3)c2cc1OC` (top concentration tested 10000 nM), for which the drug sensitivity score stood at 0.44 in the experiment on HEK293sieSTAT3(Y640F) [1], 0 with HEK293sieSTAT3(wt) [2], 1.53 with HEK293sieSTAT3(Y640F) [3] and 2.4 with HEK293sieSTAT3(wt) [4].

As to `COc1ccc(-c2cc3c(C)nc(N)nc3n([C@H]3CC[C@H](OCCO)CC3)c2=O)cn1` (top concentration tested 10000 nM), the drug sensitivity score in the experiment with HEK293sieSTAT3(Y640F) [1] was found to be 0; in the experiment with HEK293sieSTAT3(wt) [2] it was 2.91; with HEK293sieSTAT3(Y640F) [3], 20.1; in the experiment on HEK293sieSTAT3(wt) [4] it was 23.3.

Take `COc1ccc(Cn2ccc3ccc(C(=O)NO)cc32)cc1` (top concentration tested 10000 nM): the drug sensitivity score in the experiment on HEK293sieSTAT3(Y640F) [1] stood at 0; in the experiment with HEK293sieSTAT3(wt) [2] it was 0; with HEK293sieSTAT3(Y640F) [3], 2.79; in the experiment on HEK293sieSTAT3(wt) [4], 3.02.

In the case of `CS(=O)(=O)N1CCc2c(-c3cnc(N)nc3)nc(N3CCOCC3)nc21` (top concentration tested 10000 nM), the drug sensitivity score with HEK293sieSTAT3(Y640F) [1] turned out to be 0; in the experiment with HEK293sieSTAT3(wt) [2], 5.98; with HEK293sieSTAT3(Y640F) [3], 12; in the experiment with HEK293sieSTAT3(wt) [4], 15.5.

As for `C[C@@H](Oc1cc(-n2cnc3ccc(CN4CCN(C)CC4)cc32)sc1C(N)=O)c1ccccc1C(F)(F)F` (top concentration tested 10000 nM), the drug sensitivity score in the experiment on HEK293sieSTAT3(Y640F) [1] turned out to be 15.3; with HEK293sieSTAT3(wt) [2] it was 37.4; in the experiment with HEK293sieSTAT3(Y640F) [3] it was 37.9; in the experiment on HEK293sieSTAT3(wt) [4], 36.5.

For `C[C@@]1(C(=O)Nc2ccc(F)nc2)CCCN1c1nc(Nc2cc(C3CC3)n[nH]2)c2cccn2n1` (top concentration tested 10000 nM), the drug sensitivity score in the experiment on HEK293sieSTAT3(Y640F) [1] came to 0.48; with HEK293sieSTAT3(wt) [2], 5.21; with HEK293sieSTAT3(Y640F) [3], 17.4; with HEK293sieSTAT3(wt) [4], 15.8.

For the compound `Cc1c(Cn2c(C)nc3c(C(=O)O)cc(N4CCOCC4)cc32)cccc1C(F)(F)F` (top concentration tested 10000 nM), the drug sensitivity score in the experiment on HEK293sieSTAT3(Y640F) [1] amounted to 0; in the experiment with HEK293sieSTAT3(wt) [2], 0.07; in the experiment with HEK293sieSTAT3(Y640F) [3] it was 0.96; in the experiment with HEK293sieSTAT3(wt) [4] it was 3.

Consider `Cc1c(NC(=O)OC[C@@H]2COCCN2)cn2ncnc(Nc3ccc4c(cnn4Cc4cccc(F)c4)c3)c12` (top concentration tested 10000 nM), for which the drug sensitivity score with HEK293sieSTAT3(Y640F) [1] was determined as 0.83; with HEK293sieSTAT3(wt) [2] it was 6.8; with HEK293sieSTAT3(Y640F) [3] it was 2.59; in the experiment on HEK293sieSTAT3(wt) [4], 6.6.

`Cc1nc(Nc2n[nH]c3c2CN(C(=O)N[C@H](CN(C)C)c2ccccc2)C3(C)C)c2sccc2n1` (top concentration tested 10000 nM): the drug sensitivity score stood at 0.9 with HEK293sieSTAT3(Y640F) [1], 34 in the experiment with HEK293sieSTAT3(wt) [2], 19.3 in the experiment on HEK293sieSTAT3(Y640F) [3] and 32.7 in the experiment with HEK293sieSTAT3(wt) [4].

For the compound `Cn1cc(-c2ccc3nnc(C(F)(F)c4ccc5ncccc5c4)n3n2)cn1` (top concentration tested 10000 nM), the drug sensitivity score in the experiment with HEK293sieSTAT3(Y640F) [1] was found to be 0; with HEK293sieSTAT3(wt) [2], 0; with HEK293sieSTAT3(Y640F) [3], 0; in the experiment on HEK293sieSTAT3(wt) [4] it was 3.09.

In the case of `Cn1cc(C2=Nc3cc(NC(=O)C(N)C4CCCCC4)cc4c3C2=CNNC4=O)cn1` (configuration not stated) (top concentration tested 10000 nM), the drug sensitivity score in the experiment on HEK293sieSTAT3(Y640F) [1] worked out at 2.57; in the experiment with HEK293sieSTAT3(wt) [2], 5.91; with HEK293sieSTAT3(Y640F) [3], 17.5; with HEK293sieSTAT3(wt) [4] it was 15.8.

Regarding `N#Cc1ccc(COC[C@H]2O[C@@H](n3c(NCc4ccc(Cl)c(Cl)c4)nc4c(N)ncnc43)[C@H](O)[C@@H]2O)cc1` (top concentration tested 10000 nM), the drug sensitivity score in the experiment on HEK293sieSTAT3(Y640F) [1] was 0; with HEK293sieSTAT3(wt) [2] it was 0.11; with HEK293sieSTAT3(Y640F) [3], 4.87; in the experiment with HEK293sieSTAT3(wt) [4], 3.11.

Consider `NC[C@@](O)(c1ccc(Cl)cc1)c1ccc(-c2cn[nH]c2)cc1` (top concentration tested 10000 nM), for which the drug sensitivity score stood at 6.08 in the experiment with HEK293sieSTAT3(Y640F) [1], 6.61 in the experiment with HEK293sieSTAT3(wt) [2], 7.85 in the experiment on HEK293sieSTAT3(Y640F) [3] and 6.8 in the experiment on HEK293sieSTAT3(wt) [4].

Consider `Nc1nccc(-c2c(-c3ccc(F)cc3)ncn2C2CCCCC2)n1` (top concentration tested 10000 nM), for which the drug sensitivity score stood at 0 in the experiment with HEK293sieSTAT3(Y640F) [1], 0 with HEK293sieSTAT3(wt) [2], 3.49 with HEK293sieSTAT3(Y640F) [3] and 4.08 in the experiment with HEK293sieSTAT3(wt) [4].

On to `Nc1ncnc2c1c(COc1cccc(Cl)c1)nn2C1CCOCC1` (top concentration tested 10000 nM), for which the drug sensitivity score in the experiment with HEK293sieSTAT3(Y640F) [1] is 0; in the experiment with HEK293sieSTAT3(wt) [2] it was 0; in the experiment on HEK293sieSTAT3(Y640F) [3], 0; in the experiment on HEK293sieSTAT3(wt) [4] it was 0.14.

In the case of `O=C(NC[C@H](O)CN1CCc2ccccc2C1)c1cc(NC2COC2)ncn1` (top concentration tested 10000 nM), the drug sensitivity score in the experiment on HEK293sieSTAT3(Y640F) [1], in the experiment on HEK293sieSTAT3(wt) [2], with HEK293sieSTAT3(Y640F) [3] and in the experiment on HEK293sieSTAT3(wt) [4] was 0 in each case.

For the compound `O=C(NOCC1CC1)c1ccc(F)c(F)c1Nc1ccc(I)cc1Cl` (top concentration tested 10000 nM), the drug sensitivity score is 0 in the experiment with HEK293sieSTAT3(Y640F) [1], 0 in the experiment on HEK293sieSTAT3(wt) [2], 1.63 in the experiment on HEK293sieSTAT3(Y640F) [3] and 2.33 with HEK293sieSTAT3(wt) [4].

On to `O=C(Nc1ccc2[nH]nc(-c3ccncc3)c2c1)[C@@H]1CCN(CC(=O)N2CCN(c3ccc(-c4ncccn4)cc3)CC2)C1` (top concentration tested 10000 nM), for which the drug sensitivity score was 0.69 in the experiment with HEK293sieSTAT3(Y640F) [1], 0 in the experiment on HEK293sieSTAT3(wt) [2], 3.37 in the experiment on HEK293sieSTAT3(Y640F) [3] and 1.44 in the experiment with HEK293sieSTAT3(wt) [4].

As to `O=C(O)c1ccc(CN2CCC(CN[C@@H]3C[C@H]3c3ccccc3)CC2)cc1` (top concentration tested 10000 nM), the drug sensitivity score with HEK293sieSTAT3(Y640F) [1], in the experiment with HEK293sieSTAT3(wt) [2], with HEK293sieSTAT3(Y640F) [3] and in the experiment with HEK293sieSTAT3(wt) [4] was 0 each time.

Take `O=C1NC(=O)/C(=C/c2ccc3nccc(-c4ccncc4)c3c2)S1` (top concentration tested 10000 nM): the drug sensitivity score was 0 in the experiment on HEK293sieSTAT3(Y640F) [1], 3.49 in the experiment with HEK293sieSTAT3(wt) [2], 15.4 in the experiment on HEK293sieSTAT3(Y640F) [3] and 11.3 in the experiment with HEK293sieSTAT3(wt) [4].

In the case of `O=c1[nH]c(C2CCCN2)nc2c1oc1ccc(Cl)cc12` (configuration not stated) (top concentration tested 10000 nM), the drug sensitivity score with HEK293sieSTAT3(Y640F) [1] amounted to 0; with HEK293sieSTAT3(wt) [2], 0; in the experiment with HEK293sieSTAT3(Y640F) [3], 5.66; in the experiment with HEK293sieSTAT3(wt) [4], 6.39.

For `Cc1ccc(C(=O)Nc2ccc(CN3CCN(C)CC3)c(C(F)(F)F)c2)cc1C#Cc1cnc2cccnn12` [Ponatinib] (top concentration tested 1000 nM), the results for the drug sensitivity score with HEK293sieSTAT3(Y640F) [3] and in the experiment with HEK293sieSTAT3(wt) [4] were 6.74 and 9.83, respectively.

Turning to `CCC(C)(C)C(=O)O[C@H]1C[C@@H](C)C=C2C=C[C@H](C)[C@H](CC[C@@H]3C[C@@H](O)CC(=O)O3)[C@H]21` [Simvastatin] (top concentration tested 10000 nM), the drug sensitivity score was determined as 0.89 in the experiment on HEK293sieSTAT3(Y640F) [3] and 3.28 in the experiment with HEK293sieSTAT3(wt) [4].
